Assay results as given in patent US8975384B2, “Tag peptide and use thereof” (Osaka University, priority 2008, dated 2015).
Where two headings read alike, the source gives them in different places. Each block holds one molecule with its values, some of them ahead of it.

What was measured:
P20.1 antibody [1] = test: Kinetics analysis by surface plasmon resonance, P4 sequence repeats over P20.1 antibody-immobilized sensor chip; format: binding, mouse; details: hGH-γC fusion proteins, flow rate 20 μL/min, Biacore X-100
Method: For improvement of the efficacious affinity for the P20.1 antibody, tag peptide fusion proteins having a repeated sequence, specifically 1, 3 or 5 repeats of the P4 sequence (referred to as P4×1, P4×3 or P4×5, in the above order) were prepared (see the above (2-2)). These proteins were allowed to separately pass at a flow rate of 20 μL/min over the P20.1 antibody-immobilized sensor chip, and kinetics analysis was conducted using Biacore X-100 (GE Healthcare).

P20.1 antibody [2] = test: Sandwich ELISA, P20.1 antibody as detection antibody; format: binding, mouse; details: diluted cell supernatant, biotinylated P20.1 antibody 5 μg/mL, absorbance 405 nm
Method: The anti-hGH monoclonal antibody HGH-B was immobilized to microtiter plates. After blocking, the supernatant of cells transiently expressing the hGH-γC-P4 fusion protein having P4×1, P4×3 or P4×5 linked thereto (see FIG. 3, FIG. 4 and SEQ ID NO: 15) was added at various dilution ratios to wells of the plates, which were then allowed to stand at 4° C. overnight. In this way, such a fusion protein was captured by the antibody on the plates. After washing, a biotinylated P20.1 antibody (5 μg/mL) was allowed to react with the fusion protein at room temperature for 30 minutes. After 3-time washing, peroxidase-labeled streptavidin (Zymed) was added to the plates, which were then allowed to stand at room temperature for additional 15 minutes. After addition of peroxidase substrate (ABTS), the absorbance at 405 nm was measured.

P20.1 antibody-Sepharose = test: Pull-down efficiency with P20.1 antibody-immobilized beads; format: binding, mouse; details: pull-down by P20.1 antibody-Sepharose
Method: Three different hGH-γC-P4 fusion proteins, which have P4×1, P4×3 or P4×5, were separately expressed in HEK293T cells. The fusion protein in the separate cell culture supernatant was quantified by the sandwich ELISA (which adopts a system of hGH antibody-mediated capture+anti-BAS serum-mediated detection, and is not dependent on the responsiveness to the P20.1 antibody) (before pull-down). Aside from this, to 1 mL of the cell culture supernatant, 20 μL of the P20.1 antibody-Sepharose (bead form) was added, and then the mixture was allowed to react at 4° C. for 1 hour. After the beads were precipitated by centrifugation, the fusion protein in the supernatant was quantified by the sandwich ELISA (which adopts a system of hGH antibody-mediated capture+anti-BAS serum-mediated detection, and is not dependent on the responsiveness to the P20.1 antibody) (after pull-down). The fusion protein purified with Ni-NTA agarose was used as a standard, and based on the standard curve, the fusion protein concentrations before and after pull-down by the P20.1 antibody were determined. As is clear from Table 4, 3 to 5 repeats of the P4 sequence achieves the binding efficiency of about 80%.

P20.1 antibody [3] = test: Epitope analysis by ELISA with P4-Fn proteins and Ala mutants; format: binding, mouse; details: coated Fn fusion protein 10 μg/mL, P20.1 antibody 2 to 5 μg/mL, absorbance 405 nm
Method: The minimum peptide sequence required for recognition by the P20.1 antibody was identified by the ELISA method using various kinds of P4-Fn proteins prepared in the above (2-1). The protocol is as follows.
(1) A P4-Fn (or a mutant thereof) solution diluted at 10 μg/mL was added at 50 μL/well to 96-well plates, which were then allowed to stand (4° C., 16 hours).
(2) The supernatant of each well was removed with an aspirator, a 1% BSA solution in Tris-buffered saline (TBS; 20 mM Tris-HCl, 150 mM NaCl, pH 7.5) was added at 200 μL/well, and the plates were allowed to stand at room temperature for 1 hour.
(3) A P20.1 antibody solution (2 to 5 μg/mL) was added at 50 μL/well and the plates were allowed to stand at room temperature for 1 hour.
(4) Each well was washed with 200 μL of TBS 3 times.
(5) A peroxidase-labeled anti-mouse IgG (1/1000 dilution) was added at 50 μL/well, and the plates were allowed to stand at room temperature for 30 minutes.
(6) Each well was washed with 200 μL of TBS 4 times.
(7) A peroxidase chromogenic substrate (ABTS) was added at 100 μL/well, the plates were allowed to stand at room temperature for 5 to 10 minute, and then the absorbance of the solution in each well was measured at 405 nm.
The ELISA results of 5 different tag peptide fusion proteins having the P4 peptide attached to the N terminus of the Fn are shown in FIG. 5. […]

[4] = tested on: P4(20)-Fn protein-P20.1 antibody binding; test: Competitive dissociation by peptide (ELISA); details: peptide concentration of 0.1 mg/mL, 30 minutes
Method: For examination on whether an excess of free peptides can disrupt protein-P20.1 antibody binding, at the final washing step of the (3-1) ELISA experiment using the P4(20)-Fn protein, buffer solutions containing different concentrations of the P4(C8) peptide (8-residue peptide PRGYPGQV (SEQ ID NO: 20) synthesized by the Fmoc method) were added to wells and the plates were allowed to stand for 30 minutes.

[5] = tested on: P4×3-tagged hGH fusion protein bound to P20.1 antibody-Sepharose; test: Elution of P4×3-tagged hGH fusion protein from P20.1 antibody-Sepharose; details: in TBS, room temperature, 10 minutes
Method: With 8 mL of the culture supernatant of cells expressing the P4×3-tagged hGH fusion protein, 100 μL of the P20.1 antibody-Sepharose (0.2 mg in terms of the P20.1 antibody, bead form) was mixed, and then the mixture was allowed to react at 4° C. for 3 hours. After the reaction, the beads were washed with 3 mL of Tris-buffered saline (TBS; 20 mM Tris-HCl, 150 mM NaCl, pH 7.5), and 300 μL of an eluent as shown below was added to and mixed with the beads at room temperature for 10 minutes. The effluent obtained by each eluent was concentrated and then was subjected to SDS gel electrophoresis at an equal amount. For comparison, affinity binding was also performed using Ni-NTA beads on the same conditions as above, and the effluent obtained by use of imidazole as an eluent was analyzed simultaneously.
The above-mentioned numbers correspond to the lane numbers in FIG. 23 (a). “Ni” indicates the effluent from Ni-NTA beads. As shown in FIG. 23 (a), the tagged fusion protein which was bound to the P20.1 antibody-Sepharose was not only eluted with 0.1 mg/mL or more of the P4(C8) peptide, but also completely eluted by combined use of propylene glycol and sodium chloride. […]

P4(20)-Fn = target: T1, P4(20)-Fn (Homo sapiens, UniProt P02751); test: Surface plasmon resonance analysis (Biacore): binding affinity of P20.1 antibody for P4 peptide sequence
T1 construct: the 9th to 10th region of the Fn3 domain of human fibronectin (185 residues); made in house; host or cells: pET11c vector
Method: For examination on the binding affinity of the P20.1 antibody for the P4 peptide sequence, the surface plasmon resonance analysis using Biacore was performed. After the P4(20)-Fn (see FIG. 1) purified in the (2-1) was biotinylated and then captured by a streptavidin-immobilized sensor chip, a purified P20.1 antibody was allowed to flow over the prepared sensor chip at various concentrations. […] Similarly, a commercially available Flag ([…] (SEQ ID NO: 19)) and corresponding antibody M2 were used for examination on the affinity of M2 for Flag-tagged Fn (Flag-Fn).

[6] = Phage display random screening of the peptide sequence recognizable by the P20.1 antibody; format: binding; details: panning with P20.1 antibody-immobilized magnetic beads
Source text: For extensive search for the peptide sequence recognizable by the P20.1 antibody, the phage display method was employed. The phagemid shown in FIG. 11 was constructed for insertion of the randomized 7-amino-acid peptide library (all of them have Tyr2 and Gln5 in common) into the N terminus of the gIII coat protein of M13 phage. As a result, the phage library of 10^7 members was obtained.
Through panning by use of P20.1 antibody-immobilized magnetic beads, a number of clones bound to the beads were obtained. The sequence of the variable region in these different clones was decoded by DNA sequencing, and the sequence pattern as shown in FIG. 12 was obtained. […] Namely, it can be said that the P20.1 antibody generally has a high affinity for the following peptide sequence: X1-Tyr2-Pro3-Gly4-Gln5-X6: SEQ ID NO:21 (wherein X1 is any amino acid residue; Pro3 may be an amino acid having a small side chain, such as S, V, C, A, T, E, G and D; and X6 is any hydrophobic amino acid). X-Ray Crystallography of the P20.1 Antibody Fab Fragment-Peptide Complex (5-1) Amino Acid Sequencing of the P20.1 Antibody Variable Region DNA Cloning from Hybridoma

[7] = P20.1 antibody flowed over biotinylated P4(20)-Fn captured on streptavidin sensor chip

affinity / binding capacity for the P20.1 antibody (P20.1 antibody [1]): extremely weak affinity | Binding efficiency (P20.1 antibody-Sepharose): 14%
Molecule: P4: hGH/fibrinogen γC fusion protein tagged with 1 repeat of the P4 sequence GYPGQV
signals in sandwich ELISA (P20.1 antibody [2]): only weak signals were detected in 3-fold or less diluted supernatant

Binding efficiency (P20.1 antibody-Sepharose): 78%
Molecule: P4 × 3: hGH/fibrinogen γC fusion protein tagged with 3 repeats of the P4 sequence GYPGQV
signals in sandwich ELISA (P20.1 antibody [2]): dose-dependent signals were observed in 30-fold or less diluted supernatant

Molecule: GGDDSTPSILPAPRGYPGQVC [P4 peptide]
recognition by / responsiveness to the P20.1 antibody (P20.1 antibody [3]): can be recognized by the P20.1 antibody

dissociation of protein-P20.1 antibody binding by free peptide [4]: almost complete dissociation
Molecule: PRGYPGQV [P4(C8) peptide]
peptide concentration that eluted the tagged fusion protein [5]: ≥ 0.1 mg/mL

Molecule: GYPGQV [P4 sequence]
recognition by / responsiveness to the P20.1 antibody (P20.1 antibody [3]): enough for recognition by the P20.1 antibody

affinity / binding capacity for the P20.1 antibody (P20.1 antibody [1]): further increased binding capacity | Binding efficiency (P20.1 antibody-Sepharose): 80%
Molecule: P4 × 5: hGH/fibrinogen γC fusion protein tagged with 5 repeats of the P4 sequence GYPGQV
signals in sandwich ELISA (P20.1 antibody [2]): dose-dependent signals were observed in 30-fold or less diluted supernatant

Ka (P4(20)-Fn; [7]): 365000 M⁻¹ s⁻¹ | Kd(1/s) (P4(20)-Fn; [7]): 0.00123 s⁻¹ | Kd (P4(20)-Fn; P20.1 antibody flowed over biotinylated P4(20)-Fn captured on streptavidin sensor chip, read-out: KD): 3.38 nM | Kd (P4(20)-Fn; affinity for the P4(20)-Fn, read-out: apparent dissociation equilibrium constant (Kd)): ~3.4 nM
B1: P20.1 Ab: monoclonal antibody produced by mouse-mouse hybridoma P20.1 (FERM BP-11061), IgG1 isotype, λ light chains, against N-terminal 20 residues of human PAR4 (antibody, V domains shown)
VH: QIQLVQSGPEVQKPGETVRISCKASGYTFTTAGMQWVQKMPGKSLKWIGWINTRSGVPKYAEDFKGRFAFSLETSASIAYLHINNLKNEDTATYFCAREGPGFVYWGQGTLVTVSA
VL: QTVVTQESALTTSPGETVTLTCRSSTGVVTTSNYANWVQEKPDHLFTGLIVGTNNRVPGVPPRFSGSLIGDKAALTITGAQTEDEAIYFCALWYSNHWVFGGGTKLTVL
peptide sequence required for recognition [6]: requires the presence of tyrosine, glycine and glutamine at position 2, 4 and 5
